What was measured:
[1] = target: Sonic hedgehog protein (Mus musculus, UniProt Q62226); assay: Inhibition of SHH pathway in mouse Shh Light2 cells after 40 hrs by Gli-dependent luciferase reporter gene assay; type: functional, cell-based, Shh Light II
[2] = target: Sonic hedgehog protein (Mus musculus) (UniProt Q62226); assay: Inhibition of N-terminal SHH activated pathway in mouse C3H10T1/2 cells assessed as SAG-induced cell differentiation at 1 uM by alkaline phosphatase assay; type: cell-based; conditions: C3H 10T1/2
[3] = target: Sonic hedgehog protein (Mus musculus) (UniProt Q62226); assay: Inhibition of N-terminal SHH activated pathway in mouse C3H10T1/2 cells assessed as SAG-induced cell differentiation at 10 uM by alkaline phosphatase assay; type: cell-based; conditions: C3H 10T1/2
[4] = target: Sonic hedgehog protein (Mus musculus) (UniProt Q62226); assay: Inhibition of SHH pathway in mouse Shh Light2 cells at 0.3 uM after 40 hrs by Gli-dependent luciferase reporter gene assay; type: functional, cell-based; conditions: Shh Light II
[5] = target: Sonic hedgehog protein (Mus musculus) (UniProt Q62226); assay: Inhibition of SHH pathway in mouse Shh Light2 cells at 3 uM after 40 hrs by Gli-dependent luciferase reporter gene assay; type: functional, cell-based; conditions: Shh Light II
[6] = target: Sonic hedgehog protein (Mus musculus) (UniProt Q62226); assay: Inhibition of SHH pathway in mouse Shh Light2 cells at 10 uM after 40 hrs by Gli-dependent luciferase reporter gene assay; type: functional, cell-based; conditions: Shh Light II

Chain of Sonic hedgehog protein (Q62226 25-198 limits assumed): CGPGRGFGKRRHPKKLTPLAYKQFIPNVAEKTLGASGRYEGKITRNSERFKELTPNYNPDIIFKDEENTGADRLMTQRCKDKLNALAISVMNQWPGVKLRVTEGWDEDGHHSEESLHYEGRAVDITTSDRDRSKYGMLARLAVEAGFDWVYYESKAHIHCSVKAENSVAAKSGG

SMILES	IC50 [1]	inhibition [2]	inhibition [3]	inhibition [4]	inhibition [5]	inhibition [6]
C[C@H]([C@@H]1CCCCN1)[C@H]1CC[C@H]2[C@@H]3CC=C4C[C@@H](O)CC[C@]4(C)[C@H]3CC[C@]12C [DESMETHYLVERAMILINE]	1100 nM	13%	85%	5%	47%	87%
CC1=C2C[C@H]3[C@@H](CC=C4C[C@@H](O)CC[C@@]43C)[C@@H]2CC[C@]12O[C@@H]1C[C@H](C)CN[C@H]1[C@H]2C [CYCLOPAMINE]	300 nM	71%	105%	58%	96%	98%
COc1cccc(CN(C(=O)CC(C)(C)C)[C@H]2C[C@@H](C(=O)N3CCNCC3)N(Cc3ccc4c(c3)OCO4)C2)c1	100 nM	78%	99%	89%	97%	92%

Reference: ChEMBL document CHEMBL1799946, “Synthesis and biological evaluation of desmethylveramiline, a micromolar Hedgehog inhibitor” (Bioorg Med Chem Lett, 2011)
